Assay results: patent US6844306B2, “Water-soluble, chlorhexidine-containing compositions and use thereof” (Degussa AG, priority 2000, dated 2005)

How the values were obtained:
[1] = cited from earlier work
[2] = Source text: Ion concentrations exceeding the maximum values established by the solubility product should lead to precipitations.

Row | Structure (SMILES) | water solubility [1] | bromide ions in saturated chlorhexidine bromide solution [2] [mg per liter] | chlorhexidine dication in saturated chlorhexidine bromide solution [2]
1 | CCCCCCCCCCCCCCCC[N+](C)(C)C.[Br-] [cetrimide, N-cetyl-N,N,N-trimethylammonium bromide] | approx. 67 g/l |  | 
2 | Br.Br.N=C(NCCCCCCNC(=N)NC(=N)Nc1ccc(Cl)cc1)NC(=N)Nc1ccc(Cl)cc1 [chlorhexidine dibromide] |  | ~450 | approximately 1400 mg per liter
